What all share (test): inhibition of tumour cell growth, NCI panel, 48 h
Experiment [1] has as its system HCC 2998.
The subject of experiment [2] is RXF 393.
The test system of experiment [3] is SF-539.
Experiment [4] deals with HL-60.
The subject of experiment [5] is HCT-116.
Experiment [6] concerns U-251.
Experiment [7] concerns IGROV-1.
Experiment [8] deals with OVCAR-4.
In experiment [9] the test system is SK-MEL-28.
For experiment [10], the system named is EKVX.
Experiment [11] concerns M14.
Experiment [12] deals with HOP-92.
The subject of experiment [13] is SN12C.
Experiment [14] has as its system CAKI-1.
Experiment [15] relates to SF-268.
For experiment [16], the system named is HT-29.
Experiment [17] has as its system NCI-H23.
Experiment [18] relates to ACHN.

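48-hour exposure; five concentrations; linearly interpolated endpoints. GI50 is the concentration that inhibits growth by half.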 The source made the active and inactive calls. Cut-off read from the data, not from the text of the source: active = GI50 up to about 1.1 µM and inactive = higher.

Take `CC(/C=C/C(=O)c1sc(-n2nc(-c3ccccc3)cc2-c2ccccc2)nc1C)=C\c1ccccc1`: the GI50 was 23.7 µM (inactive) in experiment [1]; > 10 µM (inactive) in experiment [2]; 52.1 µM (inactive) in experiment [3]; 36.3 µM (inactive) in [4]; 62.5 µM (inactive) in [5]; 65.2 µM (inactive) in [6]. Moreover, the GI50 in experiment [7] is 98.4 µM (inactive); in experiment [8], 7.43 µM (inactive); in experiment [9], > 10 µM (inactive); in [10], 5.05 µM (inactive); in experiment [11], > 10 µM (inactive); in experiment [12] it was 8.69 µM (inactive). The GI50 in [13] is 40.3 µM (inactive); in experiment [14], 20.7 µM (inactive); in experiment [15], 72.9 µM (inactive); in [16], > 10 µM (inactive); in [17] it was 8.3 µM (inactive); in experiment [18] it was 25.6 µM (inactive).

Regarding `O=C(O)CCCNS(=O)(=O)c1ccc2ccccc2c1`, the GI50 in experiment [1], in experiment [2], in [3], in experiment [4], in experiment [6] and in experiment [7] was > 100 µM (inactive) throughout. The GI50 in experiment [8] was > 100 µM (inactive); in [9] it was > 100 µM (inactive); in [10], > 100 µM (inactive); in experiment [11], > 100 µM (inactive); in experiment [12], 97.7 µM (inactive); in [13] it was > 100 µM (inactive). The GI50 in [14], in experiment [15], in experiment [16], in [17] and in experiment [18] was > 100 µM (inactive) throughout.

As for `CC(C)N(C(=O)C12C3C4C5(C#N)C3C1(C#N)C5C42I)C(C)C` (stereo not given), the GI50 is > 100 µM (inactive) in experiment [1]; > 100 µM (inactive) in [2]; > 100 µM (inactive) in experiment [3]; > 41 µM (inactive) in experiment [4]; 17.4 µM (inactive) in [5]; > 100 µM (inactive) in experiment [6]. The GI50 in experiment [7], in experiment [8], in experiment [9], in experiment [10], in [11] and in experiment [12] was > 100 µM (inactive) throughout. The GI50 in [13], in [14], in experiment [15], in experiment [16], in experiment [17] and in experiment [18] was > 100 µM (inactive) in each case.

With `O=C(CC1OC(O)C(Cl)=C1Cl)c1cccnc1` (stereo not given), the GI50 in experiment [1] was > 71.8 µM (inactive); in experiment [2], > 100 µM (inactive); in experiment [3], 0.359 µM (active); in [4], > 100 µM (inactive); in experiment [5] it was > 39.8 µM (inactive); in experiment [6], > 41.2 µM (inactive). Also, the GI50 was > 100 µM (inactive) in [7]; > 100 µM (inactive) in experiment [8]; > 42.7 µM (inactive) in experiment [9]; > 100 µM (inactive) in experiment [10]; > 100 µM (inactive) in experiment [11]; > 100 µM (inactive) in experiment [12]. In addition, the GI50 was > 100 µM (inactive) in experiment [13]; > 100 µM (inactive) in [14]; > 68.4 µM (inactive) in [15]; > 42.3 µM (inactive) in [16]; > 100 µM (inactive) in [17]; > 31.6 µM (inactive) in [18].

Regarding `O=C(c1cc2c(C(F)(F)F)onc2c2ccccc12)C(F)(F)F`, the GI50 in experiment [1] is 4.55 µM (inactive); in [2] it was 4.3 µM (inactive); in experiment [3], 3.75 µM (inactive); in [4], 0.984 µM (active); in experiment [5] it was 0.0452 µM (active); in experiment [6], 0.371 µM (active). The GI50 in experiment [7] is 2.74 µM (inactive); in experiment [8], 3.65 µM (inactive); in experiment [9] it was 3.44 µM (inactive); in experiment [10], 7.38 µM (inactive); in experiment [11] it was 3.94 µM (inactive); in [12] it was 1.58 µM (inactive). Besides, the GI50 in experiment [13] is 0.614 µM (active); in [14] it was 2.78 µM (inactive); in experiment [15] it was 2.75 µM (inactive); in experiment [16] it was 3.7 µM (inactive); in [17], 0.929 µM (active); in experiment [18] it was 2.89 µM (inactive).

`C=CCONC(=O)c1ccc(Cl)cc1`: the GI50 in [1], in [2], in experiment [3], in [4], in experiment [5] and in [6] was > 100 µM (inactive) throughout. Moreover, the GI50 in experiment [7], in [8], in experiment [9], in [10], in [11] and in [12] was > 100 µM (inactive) each time. Besides, the GI50 in experiment [13], in [14], in experiment [15], in experiment [16], in [17] and in experiment [18] was > 100 µM (inactive) in each case.

Turning to `CCN(CC)c1ccc2c(c1)Nc1cc(=C(C#N)C#N)c3ccccc3c1=N2`, the GI50 in experiment [1] was > 100 µM (inactive); in experiment [2], > 100 µM (inactive); in experiment [3] it was > 100 µM (inactive); in [4] it was > 100 µM (inactive); in experiment [5] it was 82.6 µM (inactive); in experiment [6] it was > 100 µM (inactive). For the same molecule, the GI50 in experiment [7], in [8], in experiment [9], in [10], in experiment [11] and in experiment [12] was > 100 µM (inactive) in each case. Further, the GI50 in experiment [13], in experiment [14], in experiment [15], in experiment [16], in [17] and in experiment [18] was > 100 µM (inactive) in each case.

Regarding `CN(C)C(=S)/N=c1\sn(C)/c(=N\C(=S)N(C)C)n1C`, the GI50 in experiment [1] is > 100 µM (inactive); in experiment [2], > 100 µM (inactive); in experiment [3], > 100 µM (inactive); in experiment [4], 25.1 µM (inactive); in experiment [5] it was > 100 µM (inactive); in experiment [6] it was 85.3 µM (inactive). Moreover, the GI50 in experiment [7], in experiment [8], in experiment [9], in experiment [10], in experiment [11] and in experiment [12] was > 100 µM (inactive) in each case. Further, the GI50 in experiment [13] is > 100 µM (inactive); in [14], > 100 µM (inactive); in experiment [15], > 100 µM (inactive); in experiment [16], 25.9 µM (inactive); in experiment [17] it was 30.8 µM (inactive); in experiment [18], > 100 µM (inactive).

For the molecule `O=C1C(c2ccccc2)=C(c2ccccc2)C(c2ccc(CCCCCCc3ccc(C4=C(c5ccccc5)C(=O)C(c5ccccc5)=C4c4ccccc4)cc3)cc2)=C1c1ccccc1`, the GI50 in [1] was > 100 µM (inactive); in experiment [2] it was 26.4 µM (inactive); in experiment [3], > 100 µM (inactive); in experiment [4] it was > 100 µM (inactive); in experiment [5], > 100 µM (inactive); in [6] it was 64.6 µM (inactive). The GI50 in experiment [7], in experiment [8], in experiment [9], in [10], in experiment [11] and in experiment [12] was > 100 µM (inactive) each time. In addition, the GI50 in [13], in experiment [15], in [16], in experiment [17] and in experiment [18] was > 100 µM (inactive) throughout.

As for `CN1C(=O)C2C(C1=O)C1(O)c3ccccc3C2(N)c2ccccc21` (stereo not given), the GI50 in experiment [1], in experiment [2], in [3], in experiment [4], in [5] and in [6] was > 100 µM (inactive) each time. The GI50 in experiment [7], in experiment [8], in experiment [9], in experiment [10], in experiment [11] and in [12] was > 100 µM (inactive) throughout. The GI50 in [13], in [14], in experiment [15], in experiment [16], in [17] and in [18] was > 100 µM (inactive) throughout.

`CS(=O)(=O)N(N(CCCl)S(=O)(=O)c1ccccc1)S(C)(=O)=O`: the GI50 is > 100 µM (inactive) in experiment [1]; > 100 µM (inactive) in experiment [2]; 38.5 µM (inactive) in [3]; > 100 µM (inactive) in experiment [4]; > 100 µM (inactive) in experiment [5]; 17.7 µM (inactive) in experiment [6]. Further, the GI50 in [8], in [9], in experiment [10], in [11], in experiment [12] and in [13] was > 100 µM (inactive) each time. In addition, the GI50 in [14] was > 100 µM (inactive); in experiment [15], 21.3 µM (inactive); in experiment [16], > 100 µM (inactive); in experiment [17], > 100 µM (inactive); in experiment [18], > 100 µM (inactive).

(Values after ChEMBL document CHEMBL1201862, “PubChem BioAssay data set” (2004).)
